Assay results reported in article PMC11352961, “Peptide dendrimers transfecting CRISPR/Cas9 plasmid DNA: optimization and mechanism” (RSC Chemical Biology, 2024).
Bridge positions count the residues as written; N and C are the ends. Square brackets hold non-standard residues; d marks the D form. Side chains are listed from the residue outwards. Peptide text beside a SMILES is read from it. I, II: the chains in the order shown. * marks the point of attachment. Stearoyl = CCCCCCCCCCCCCCCCCC(=O)*; Palmitoyl = CCCCCCCCCCCCCCCC(=O)*

Tests used:
HEK293 cells = assay: Cell viability by PrestoBlue assay after transfection, HEK cells; assay type: cell-based; details: 4 h
HeLa cells = assay: Cell viability by PrestoBlue assay after transfection, HeLa cells; assay type: cell-based; details: 4 h

Compound | % viability HEK cells (HEK293 cells) [%] | % viability HeLa cells (HeLa cells) [%]
CCCCCCCCCCCCCCCCCC(=O)NCCCC[C@H](NC(=O)[C@H](CCCCNC(=O)[C@H](CC(C)C)NC(=O)[C@H](CCCNC(=N)N)NC(=O)[C@H](CCCCNC(=O)[C@H](CC(C)C)NC(=O)[C@H](CCCNC(=N)N)NC(=O)[C@H](CCCCNC(=O)[C@H](CC(C)C)NC(=O)[C@@H](N)CCCNC(=N)N)NC(=O)[C@H](CC(C)C)NC(=O)[C@@H](N)CCCNC(=N)N)NC(=O)[C@H](CC(C)C)NC(=O)[C@H](CCCNC(=N)N)NC(=O)[C@H](CCCCNC(=O)[C@H](CC(C)C)NC(=O)[C@@H](N)CCCNC(=N)N)NC(=O)[C@H](CC(C)C)NC(=O)[C@@H](N)CCCNC(=N)N)NC(=O)[C@H](CC(C)C)NC(=O)[C@H](CCCNC(=N)N)NC(=O)[C@H](CCCCNC(=O)[C@H](CC(C)C)NC(=O)[C@H](CCCNC(=N)N)NC(=O)[C@H](CCCCNC(=O)[C@H](CC(C)C)NC(=O)[C@@H](N)CCCNC(=N)N)NC(=O)[C@H](CC(C)C)NC(=O)[C@@H](N)CCCNC(=N)N)NC(=O)[C@H](CC(C)C)NC(=O)[C@H](CCCNC(=N)N)NC(=O)[C@H](CCCCNC(=O)[C@H](CC(C)C)NC(=O)[C@@H](N)CCCNC(=N)N)NC(=O)[C@H](CC(C)C)NC(=O)[C@@H](N)CCCNC(=N)N)C(=O)N[C@@H](C)C(N)=O [Z25] (I: H-RLK([Leu-Arg])RLKRLKK(Stearoyl)A-NH2 / II: H-RLK([Leu-Arg])RLKRL / III: H-RLK([Leu-Arg])RL / IV: H-RLK([Leu-Arg])RL; amide I:6-IV:C, I:9-II:C, II:6-III:C) | 85 ± 2 | 104 ± 8
CCCCCCCCCCCCCCCCCC(=O)NCCCC[C@@H](NC(=O)[C@@H](CCCCNC(=O)CCCCCCCCCCCCCCCCC)NC(=O)[C@@H](CCCCNC(=O)[C@@H](CC(C)C)NC(=O)[C@@H](CCCCN)NC(=O)[C@@H](CCCCNC(=O)[C@@H](CC(C)C)NC(=O)[C@@H](CCCCN)NC(=O)[C@@H](CCCCNC(=O)[C@@H](CC(C)C)NC(=O)[C@H](N)CCCCN)NC(=O)[C@@H](CC(C)C)NC(=O)[C@H](N)CCCCN)NC(=O)[C@@H](CC(C)C)NC(=O)[C@@H](CCCCN)NC(=O)[C@@H](CCCCNC(=O)[C@@H](CC(C)C)NC(=O)[C@H](N)CCCCN)NC(=O)[C@@H](CC(C)C)NC(=O)[C@H](N)CCCCN)NC(=O)[C@@H](CC(C)C)NC(=O)[C@@H](CCCCN)NC(=O)[C@@H](CCCCNC(=O)[C@@H](CC(C)C)NC(=O)[C@@H](CCCCN)NC(=O)[C@@H](CCCCNC(=O)[C@@H](CC(C)C)NC(=O)[C@H](N)CCCCN)NC(=O)[C@@H](CC(C)C)NC(=O)[C@H](N)CCCCN)NC(=O)[C@@H](CC(C)C)NC(=O)[C@@H](CCCCN)NC(=O)[C@@H](CCCCNC(=O)[C@@H](CC(C)C)NC(=O)[C@H](N)CCCCN)NC(=O)[C@@H](CC(C)C)NC(=O)[C@H](N)CCCCN)C(N)=O [Z27] (I: H-[dK][dL][dK]([dL-dK])[dK][dL][dK][dK][dL][dK][dK](Stearoyl)[dK](Stearoyl)-NH2 / II: H-[dK][dL][dK]([dL-dK])[dK][dL][dK][dK][dL] / III: H-[dK][dL][dK]([dL-dK])[dK][dL] / IV: H-[dK][dL][dK]([dL-dK])[dK][dL]; amide I:6-IV:C, I:9-II:C, II:6-III:C) | 74.8 ± 0.7 | 94 ± 5
CC(C)C[C@@H](NC(=O)[C@@H](CC(C)C)NC(=O)[C@@H](CC(C)C)NC(=O)[C@@H](CC(C)C)NC(=O)[C@@H](CC(C)C)NC(=O)[C@@H](CCCCNC(=O)[C@@H](CC(C)C)NC(=O)[C@@H](CCCCN)NC(=O)[C@@H](CCCCNC(=O)[C@@H](CC(C)C)NC(=O)[C@@H](CCCCN)NC(=O)[C@@H](CCCCNC(=O)[C@@H](CC(C)C)NC(=O)[C@H](N)CCCCN)NC(=O)[C@@H](CC(C)C)NC(=O)[C@H](N)CCCCN)NC(=O)[C@@H](CC(C)C)NC(=O)[C@@H](CCCCN)NC(=O)[C@@H](CCCCNC(=O)[C@@H](CC(C)C)NC(=O)[C@H](N)CCCCN)NC(=O)[C@@H](CC(C)C)NC(=O)[C@H](N)CCCCN)NC(=O)[C@@H](CC(C)C)NC(=O)[C@@H](CCCCN)NC(=O)[C@@H](CCCCNC(=O)[C@@H](CC(C)C)NC(=O)[C@@H](CCCCN)NC(=O)[C@@H](CCCCNC(=O)[C@@H](CC(C)C)NC(=O)[C@H](N)CCCCN)NC(=O)[C@@H](CC(C)C)NC(=O)[C@H](N)CCCCN)NC(=O)[C@@H](CC(C)C)NC(=O)[C@@H](CCCCN)NC(=O)[C@@H](CCCCNC(=O)[C@@H](CC(C)C)NC(=O)[C@H](N)CCCCN)NC(=O)[C@@H](CC(C)C)NC(=O)[C@H](N)CCCCN)C(N)=O [Z28] (I: H-[dK][dL][dK]([dL-dK])[dK][dL][dK][dK][dL][dK][dL][dL][dL][dL][dL]-NH2 / II: H-[dK][dL][dK]([dL-dK])[dK][dL][dK][dK][dL] / III: H-[dK][dL][dK]([dL-dK])[dK][dL] / IV: H-[dK][dL][dK]([dL-dK])[dK][dL]; amide I:6-IV:C, I:9-II:C, II:6-III:C) | 103 ± 0.2 | 101 ± 7
CCCCCCCCCCCCCCCC(=O)NCCCC[C@@H](NC(=O)[C@@H](CCCCNC(=O)[C@@H](CC(C)C)NC(=O)[C@@H](CCCCN)NC(=O)[C@@H](CCCCNC(=O)[C@@H](CC(C)C)NC(=O)[C@@H](CCCCN)NC(=O)[C@@H](CCCCNC(=O)[C@@H](CC(C)C)NC(=O)[C@H](N)CCCCN)NC(=O)[C@@H](CC(C)C)NC(=O)[C@H](N)CCCCN)NC(=O)[C@@H](CC(C)C)NC(=O)[C@@H](CCCCN)NC(=O)[C@@H](CCCCNC(=O)[C@@H](CC(C)C)NC(=O)[C@H](N)CCCCN)NC(=O)[C@@H](CC(C)C)NC(=O)[C@H](N)CCCCN)NC(=O)[C@@H](CC(C)C)NC(=O)[C@@H](CCCCN)NC(=O)[C@@H](CCCCNC(=O)[C@@H](CC(C)C)NC(=O)[C@@H](CCCCN)NC(=O)[C@@H](CCCCNC(=O)[C@@H](CC(C)C)NC(=O)[C@H](N)CCCCN)NC(=O)[C@@H](CC(C)C)NC(=O)[C@H](N)CCCCN)NC(=O)[C@@H](CC(C)C)NC(=O)[C@@H](CCCCN)NC(=O)[C@@H](CCCCNC(=O)[C@@H](CC(C)C)NC(=O)[C@H](N)CCCCN)NC(=O)[C@@H](CC(C)C)NC(=O)[C@H](N)CCCCN)C(N)=O [Z29] (I: H-[dK][dL][dK]([dL-dK])[dK][dL][dK][dK][dL][dK][dK](Palmitoyl)-NH2 / II: H-[dK][dL][dK]([dL-dK])[dK][dL][dK][dK][dL] / III: H-[dK][dL][dK]([dL-dK])[dK][dL] / IV: H-[dK][dL][dK]([dL-dK])[dK][dL]; amide I:6-IV:C, I:9-II:C, II:6-III:C) | 87 ± 1 | 95 ± 5
CCCCCCCCCCCCCCCCCC(=O)NCCCC[C@@H](NC(=O)[C@@H](CCCCNC(=O)[C@@H](CC(C)C)NC(=O)[C@@H](CCCCN)NC(=O)[C@@H](CCCCNC(=O)[C@@H](CC(C)C)NC(=O)[C@@H](CCCCN)NC(=O)[C@@H](CCCCNC(=O)[C@@H](CC(C)C)NC(=O)[C@H](N)CCCCN)NC(=O)[C@@H](CC(C)C)NC(=O)[C@H](N)CCCCN)NC(=O)[C@@H](CC(C)C)NC(=O)[C@@H](CCCCN)NC(=O)[C@@H](CCCCNC(=O)[C@@H](CC(C)C)NC(=O)[C@H](N)CCCCN)NC(=O)[C@@H](CC(C)C)NC(=O)[C@H](N)CCCCN)NC(=O)[C@@H](CC(C)C)NC(=O)[C@@H](CCCCN)NC(=O)[C@@H](CCCCNC(=O)[C@@H](CC(C)C)NC(=O)[C@@H](CCCCN)NC(=O)[C@@H](CCCCNC(=O)[C@@H](CC(C)C)NC(=O)[C@H](N)CCCCN)NC(=O)[C@@H](CC(C)C)NC(=O)[C@H](N)CCCCN)NC(=O)[C@@H](CC(C)C)NC(=O)[C@@H](CCCCN)NC(=O)[C@@H](CCCCNC(=O)[C@@H](CC(C)C)NC(=O)[C@H](N)CCCCN)NC(=O)[C@@H](CC(C)C)NC(=O)[C@H](N)CCCCN)C(=O)N[C@H](C)C(N)=O [Z30] (I: H-[dK][dL][dK]([dL-dK])[dK][dL][dK][dK][dL][dK][dK](Stearoyl)[dA]-NH2 / II: H-[dK][dL][dK]([dL-dK])[dK][dL][dK][dK][dL] / III: H-[dK][dL][dK]([dL-dK])[dK][dL] / IV: H-[dK][dL][dK]([dL-dK])[dK][dL]; amide I:6-IV:C, I:9-II:C, II:6-III:C) | 75 ± 1 | 91 ± 8
CCCCCCCCCCCCCCCCCC(=O)NCCCC[C@@H](NC(=O)[C@@H](CCCCNC(=O)[C@@H](CC(C)C)NC(=O)[C@@H](CC(C)C)NC(=O)[C@@H](CCCCNC(=O)[C@@H](CC(C)C)NC(=O)[C@@H](CCCCN)NC(=O)[C@@H](CCCCNC(=O)[C@@H](CC(C)C)NC(=O)[C@H](N)CCCCN)NC(=O)[C@@H](CC(C)C)NC(=O)[C@H](N)CCCCN)NC(=O)[C@@H](CC(C)C)NC(=O)[C@@H](CCCCN)NC(=O)[C@@H](CCCCNC(=O)[C@@H](CC(C)C)NC(=O)[C@H](N)CCCCN)NC(=O)[C@@H](CC(C)C)NC(=O)[C@H](N)CCCCN)NC(=O)[C@@H](CC(C)C)NC(=O)[C@@H](CC(C)C)NC(=O)[C@@H](CCCCNC(=O)[C@@H](CC(C)C)NC(=O)[C@@H](CCCCN)NC(=O)[C@@H](CCCCNC(=O)[C@@H](CC(C)C)NC(=O)[C@H](N)CCCCN)NC(=O)[C@@H](CC(C)C)NC(=O)[C@H](N)CCCCN)NC(=O)[C@@H](CC(C)C)NC(=O)[C@@H](CCCCN)NC(=O)[C@@H](CCCCNC(=O)[C@@H](CC(C)C)NC(=O)[C@H](N)CCCCN)NC(=O)[C@@H](CC(C)C)NC(=O)[C@H](N)CCCCN)C(N)=O [Z31] (I: H-[dK][dL][dK]([dL-dK])[dK][dL][dK][dL][dL][dK][dK](Stearoyl)-NH2 / II: H-[dK][dL][dK]([dL-dK])[dK][dL][dK][dL][dL] / III: H-[dK][dL][dK]([dL-dK])[dK][dL] / IV: H-[dK][dL][dK]([dL-dK])[dK][dL]; amide I:6-IV:C, I:9-II:C, II:6-III:C) | 96 ± 2 | 91 ± 6
